“And” between values parts separate entries of the source, which are not always exact repeats. Identical values can stand only once. Counter-ions that a name gives are not always drawn. Like-named read-outs stand apart in the source and are kept apart here.
Columns and labels:
[1] = test system: erythroid progenitor cells (EPCs); assay: Fetal hemoglobin (HbF) ELISA in day 7 erythroid progenitor cells; type: cell-based, human; conditions: Homo sapiens, Erythroid progenitor cell, HbF ELISA, day 7 EPCs, 5 days; read-out: EPC ELISA (pEC50 category) (converted);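 also: for fetal hemoglobin induction normalized to vehicle-treated cells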
Summary of the method: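 Read-out was OD450 from an HRP/TMB sandwich ELISA on lysates, normalized to DMSO-only control wells. Thawed day 7 EPCs from human marrow CD34+ cells had been treated for 5 days at 37° C with Compound A, 22 concentrations […].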

DNMT1 = DNMT1 (Homo sapiens, UniProt P26358); assay: DNMT1 biochemical activity, breaklight assay and/or SPA assay
[2] = binned activity in either the breaklight or the SPA assay
[3] = binned activity in either the breaklight or the SPA assay, read-out: DNMT1 BioChemical (pIC50 category) (converted)

Chain of DNMT1 (P26358 whole entry, looked up): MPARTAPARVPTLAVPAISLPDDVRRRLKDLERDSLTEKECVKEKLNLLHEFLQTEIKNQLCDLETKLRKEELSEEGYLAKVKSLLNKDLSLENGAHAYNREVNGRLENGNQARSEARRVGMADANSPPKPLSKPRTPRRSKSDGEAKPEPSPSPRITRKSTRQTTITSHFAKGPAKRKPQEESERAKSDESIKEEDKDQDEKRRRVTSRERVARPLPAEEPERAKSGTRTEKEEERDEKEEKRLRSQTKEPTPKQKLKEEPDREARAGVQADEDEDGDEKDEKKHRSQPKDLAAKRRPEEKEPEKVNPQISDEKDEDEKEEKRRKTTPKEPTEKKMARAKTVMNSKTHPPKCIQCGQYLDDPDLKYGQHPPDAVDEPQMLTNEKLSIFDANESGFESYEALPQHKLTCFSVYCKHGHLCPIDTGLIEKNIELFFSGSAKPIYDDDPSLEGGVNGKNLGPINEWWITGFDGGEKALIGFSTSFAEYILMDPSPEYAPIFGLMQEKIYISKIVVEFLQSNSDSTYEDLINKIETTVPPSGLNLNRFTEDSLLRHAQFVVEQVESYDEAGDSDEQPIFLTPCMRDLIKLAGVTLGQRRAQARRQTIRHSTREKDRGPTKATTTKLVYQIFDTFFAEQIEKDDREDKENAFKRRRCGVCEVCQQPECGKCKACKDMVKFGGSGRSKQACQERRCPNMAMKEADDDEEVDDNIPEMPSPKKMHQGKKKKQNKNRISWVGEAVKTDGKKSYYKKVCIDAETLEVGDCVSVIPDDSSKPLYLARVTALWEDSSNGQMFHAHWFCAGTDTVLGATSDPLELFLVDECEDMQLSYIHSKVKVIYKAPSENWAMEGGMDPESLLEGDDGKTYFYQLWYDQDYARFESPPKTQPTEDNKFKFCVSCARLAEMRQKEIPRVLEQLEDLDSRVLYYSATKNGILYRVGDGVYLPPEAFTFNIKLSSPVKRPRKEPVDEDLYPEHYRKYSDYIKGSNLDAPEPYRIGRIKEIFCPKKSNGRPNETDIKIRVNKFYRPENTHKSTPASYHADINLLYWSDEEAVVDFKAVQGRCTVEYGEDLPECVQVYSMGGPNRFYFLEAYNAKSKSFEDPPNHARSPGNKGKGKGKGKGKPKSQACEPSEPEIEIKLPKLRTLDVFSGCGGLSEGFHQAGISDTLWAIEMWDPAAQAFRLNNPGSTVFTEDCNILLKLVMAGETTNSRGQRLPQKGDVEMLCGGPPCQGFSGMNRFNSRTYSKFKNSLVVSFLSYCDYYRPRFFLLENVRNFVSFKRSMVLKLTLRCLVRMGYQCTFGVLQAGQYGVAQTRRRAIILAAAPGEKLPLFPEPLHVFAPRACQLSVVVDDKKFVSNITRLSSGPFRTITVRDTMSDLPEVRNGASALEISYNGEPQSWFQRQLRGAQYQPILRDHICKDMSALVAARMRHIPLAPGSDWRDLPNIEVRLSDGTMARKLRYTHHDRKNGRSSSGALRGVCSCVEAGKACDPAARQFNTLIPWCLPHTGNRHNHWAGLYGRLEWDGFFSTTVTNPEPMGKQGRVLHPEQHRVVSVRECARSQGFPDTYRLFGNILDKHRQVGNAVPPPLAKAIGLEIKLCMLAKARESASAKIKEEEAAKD

Row | SMILES | EC50 [1] [µM] | DNMT1 BioChemical (pIC50 category) (DNMT1; [2]) | IC50 (DNMT1; [3]) [µM] | IC50 (DNMT1; breaklight assay and/or SPA assay, repeated experimental runs, read-out: average pIC50 against DNMT1 (converted))
1 | CCc1c(C#N)c(SCc2ccc(CS(C)(=O)=O)cc2)nc(N2CCC(N)CC2)c1C#N [Example 499, 2-(4-aminopiperidin-1-yl)-4-ethyl-6-((4-((methylsulfonyl)methyl)benzyl)thio)pyridine-3,5-dicarbonitrile] | < 0.316 | D (Category D: ≥6.5) |  | 
2 | CCc1c(C#N)c(SCc2ccc(-n3ccnc3)cc2)nc(N2CCCN(C)CC2)c1C#N [Example 294, 2-((4-(1H-Imidazol-1-yl)benzyl)thio)-4-ethyl-6-(4-methyl-1,4-diazepan-1-yl)pyridine-3,5-dicarbonitrile] | > 31.6 |  | 0.316 to 1 | 
3 | CCc1c(C#N)c(S[C@H](C(N)=O)c2ccccc2)nc(N2CC[C@H](OP(=O)(O)O)C2)c1C#N [Example 417, (S)-1-(6-(((S)-2-amino-2-oxo-1-phenylethyl)thio)-3,5-dicyano-4-ethylpyridin-2-yl)pyrrolidin-3-yl dihydroden phosphate] | > 31.6 | A (Category A: <4.5) |  | 
4 | CCc1c(C#N)c(SCc2ccc(-c3ccccn3)cc2)nc(N2CCC(N3CCCC3)CC2)c1C#N [Example 350, 4-Ethyl-2-((4-(pyridin-2-yl)benzyl)thio)-6-(4-(pyrrolidin-1-yl)piperidin-1-yl)pyridine-3,5-dicarbonitrile] | > 31.6 |  | 0.316 to 1 | 
5 | CCc1c(C#N)c(SC(C(N)=O)c2ccccc2)nc(N(C)CCN(C)CC)c1C#N (centres unmarked) [Example 483, 2-(3,5-dicyano-4-ethyl-6-((2-(ethyl(methyl)amino)ethyl)(methyl)amino)pyridin-2-ylthio)-2-phenylacetamide] | < 0.316 | D (Category D: ≥6.5) |  | 
6 | CCc1c(C#N)c(SCc2ccc(N)cc2)nc(N2CCCN(C)CC2)c1C#N [Example 297, 2-((4-Aminobenzyl)thio)-4-ethyl-6-(4-methyl-1,4-diazepan-1-yl)pyridine-3,5-dicarbonitrile] | > 31.6 |  | 0.316 to 1 | 
7 | CCc1c(C#N)c(SC(C(N)=O)c2ccccc2)nc(N2CCO[C@@H](CN)C2)c1C#N (stereo partly drawn) [Example 586, 2-((6-((S)-2-(aminomethyl)morpholino)-3,5-dicyano-4-ethylpyridin-2-yl)thio)-2-phenylacetamide] | < 0.316 | D (Category D: ≥6.5) |  | 
8 | CCc1c(C#N)c(SC(C(N)=O)c2ccccc2)nc(N2CCO[C@@H](CNCC(C)(C)C)C2)c1C#N (stereo partly drawn) [Example 567, 2-((3,5-dicyano-4-ethyl-6-((S)-2-((neopentylamino)methyl)morpholino)pyridin-2-yl)thio)-2-phenylacetamide] | < 0.316 | D (Category D: ≥6.5) |  | 
9 | CCc1c(C#N)c(S[C@H](C(N)=O)c2ccccc2)nc(N2CC[C@H](O)C2)c1C#N [Example 320, (S)-2-((3,5-Dicyano-4-ethyl-6-((S)-3-hydroxypyrrolidin-1-yl)pyridin-2-yl)thio)-2-phenylacetamide] | 0.316 to 1 |  | 1 to 31.6 | 
10 | COc1c(C#N)c(SC(C(N)=O)c2ccccc2)nc(N2CCC(N)CC2)c1C#N (centres unmarked) [Example 693, 2-((6-(4-aminopiperidin-1-yl)-3,5-dicyano-4-methoxypyridin-2-yl)thio)-2-phenylacetamide 2,2,2-trifluoroacetate] | < 0.316 | D (Category D: ≥6.5) |  | 
11 | CCc1c(C#N)c(SC(C(N)=O)c2ccccc2)nc(N2CCC(NCC(C)(C)C)CC2)c1C#N (centres unmarked) [Example 550, 2-((3,5-dicyano-4-ethyl-6-(4-(neopentylamino)piperidin-1-yl)pyridin-2-yl)thio)-2-phenylacetamide] | < 0.316 | D (Category D: ≥6.5) |  | 
12 | CCc1c(C#N)c(SCc2ccc(NC(C)=O)c(F)c2)nc(N2CCCN(C)CC2)c1C#N [Example 362] | > 31.6 |  | 0.316 to 1 | 
13 | CCc1c(C#N)c(SCc2ccc(N(C)S(C)(=O)=O)cc2)nc(N2CCC(N3CCCC3)CC2)c1C#N [Example 582, N-(4-(((3,5-dicyano-4-ethyl-6-(4-(pyrrolidin-1-yl)piperidin-1-yl)pyridin-2-yl)thio)methyl)phenyl)-N-methylmethanesulfonamide] | < 0.316 | D (Category D: ≥6.5) |  | 
14 | CCc1c(C#N)c(SC(C(N)=O)c2ccccc2)nc(N2CCC(CN)C2)c1C#N (centres unmarked) [Example 525, 2-((6-(3-(aminomethyl)pyrrolidin-1-yl)-3,5-dicyano-4-ethylpyridin-2-yl)thio)-2-phenylacetamide] | < 0.316 | D (Category D: ≥6.5) |  | 
15 | CCc1c(C#N)c(SC(C(N)=O)c2ccccc2)nc(N2CCC(N3C(=O)CCC3=O)CC2)c1C#N (centres unmarked) [Example 252, 2-((3,5-Dicyano-6-(4-(2,5-dioxopyrrolidin-1-yl)piperidin-1-yl)-4-ethylpyridin-2-yl)thio)-2-phenylacetamide] | < 0.316 | D (Category D: ≥6.5) |  | 
16 | CCc1c(C#N)c(SC(C(N)=O)c2ccccc2)nc(N2CCC(NC(=O)OC(C)(C)C)C(F)(F)C2)c1C#N (centres unmarked) [Example 383, tert-Butyl (1-(6-((2-amino-2-oxo-1-phenylethyl)thio)-3,5-dicyano-4-ethylpyridin-2-yl)-3,3-difluoropiperidin-4-yl) carbamate] | 0.316 to 1 | D (Category D: ≥6.5) |  | 
17 | CCc1c(C#N)c(SC(C(N)=O)c2ccccc2)nc(N2CCC(NC(=O)C3(N)CCOCC3)CC2)c1C#N (centres unmarked) [Example 140, 4-Amino-N-(1-(6-((2-amino-2-oxo-1-phenylethyl)thio)-3,5-dicyano-4-ethylpyridin-2-yl)piperidin-4-yl)tetrahydro-2H-pyran-4-carboxamide, Trifluoroacetic Acid Salt] | < 0.316 | D (Category D: ≥6.5) |  | 
18 | CCc1c(C#N)c(SC(C(N)=O)c2ccc(F)cc2)nc(N2CCC[C@H](CN)C2)c1C#N (stereo partly drawn) [Example 593, 2-((6-((R)-3-(aminomethyl)piperidin-1-yl)-3,5-dicyano-4-ethylpyridin-2-yl)thio)-2-(4-fluorophenyl)acetamide] | < 0.316 |  | < 0.316 | 
19 | CCc1c(C#N)c(SC(C(N)=O)c2ccccc2)nc(N2CCC(OP(=O)(O)O)C2)c1C#N (centres unmarked) [Example 150, 1-(6-((2-Amino-2-oxo-1-phenylethyl)thio)-3,5-dicyano-4-ethylpyridin-2-yl)pyrrolidin-3-yl dihydrogen phosphate] | > 31.6 |  | 1 to 31.6 | 
20 | CCc1c(C#N)c(SC(C(N)=O)c2ccccc2)nc(N2CCC3(COC3)C2)c1C#N (centres unmarked) [Example 161, 2-((3,5-Dicyano-4-ethyl-6-(2-oxa-6-azaspiro[3.4]octan-6-yl)pyridin-2-yl)thio)-2-phenylacetamide] | 1 to 31.6 |  | 0.316 to 1 | 
21 | N#Cc1c(SC(C(N)=O)c2ccccc2)nc(N2CCC(NCC(N)=O)CC2)c(C#N)c1C1CC1 (centres unmarked) [Example 667, 2-((6-(4-((2-amino-2-oxoethyl)amino)piperidin-1-yl)-3,5-dicyano-4-cyclopropylpyridin-2-yl)thio)-2-phenylacetamide] | 1 to 31.6 |  | < 0.316 | 
22 | CCc1c(C#N)c(SC(C(N)=O)c2ccccc2)nc(N2CCS(=O)(=O)CC2)c1C#N (centres unmarked) [Example 166, 2-((3,5-Dicyano-6-(1,1-dioxidothiomorpholino)-4-ethylpyridin-2-yl)thio)-2-phenylacetamide] | < 0.316 |  | 0.316 to 1 | 
23 | CCc1c(C#N)c(SC(C(N)=O)c2ccccc2)nc(N2CCC(N)(C(N)=O)CC2)c1C#N (centres unmarked) [Example 251] | 1 to 31.6 |  | 1 to 31.6 | 
24 | CCc1c(C#N)c(SC(C(N)=O)c2ccc(CC(N)=O)cc2)nc(N(C)C)c1C#N (centres unmarked) [Example 401, 2-(4-(2-Amino-2-oxoethyl)phenyl)-2-(3,5-dicyano-6-(dimethylamino)-4-ethylpyridin-2-ylthio)acetamide] | 1 to 31.6 | D (Category D: ≥6.5) |  | 
25 | CCc1c(C#N)c(SCc2ccc(CNC(C)=O)cc2)nc(N2CCC(OCCOC(=O)[C@@H](N)C(C)C)CC2)c1C#N [Example 264, (S)-2-((1-(6-((4-(Acetamidomethyl)benzyl)thio)-3,5-dicyano-4-ethylpyridin-2-yl)piperidin-4-yl)oxy)ethyl 2-amino-3-methylbutanoate] | > 31.6 |  | 1 to 31.6 | 
26 | CCc1c(C#N)c(SC(C(N)=O)c2ccccc2)nc(N2CCC(N3CC[C@H](F)C3)CC2)c1C#N (stereo partly drawn) [Example 457, 2-((3,5-dicyano-4-ethyl-6-(4-((S)-3-fluoropyrrolidin-1-yl)piperidin-1-yl)pyridin-2-yl)thio)-2-phenylacetamide] | < 0.316 | D (Category D: ≥6.5) |  | 
27 | N#Cc1c(SC(C(N)=O)c2ccccc2)nc(N2CCC(CN3CCCC3)CC2)c(C#N)c1C1CC1 (centres unmarked) [Example 39, 2-((3,5-Dicyano-4-cyclopropyl-6-(4-(pyrrolidin-1-ylmethyl)piperidin-1-yl)pyridin-2-yl)thio)-2-phenylacetamide] | < 0.316 | D (Category D: ≥6.5) |  | 
28 | CCc1c(C#N)c(S[C@H](C(N)=O)c2ccccc2)nc(N2CC[C@H](N)[C@H](F)C2)c1C#N [Example 540, (S)-2-((6-((3R,4S)-4-amino-3-fluoropiperidin-1-yl)-3,5-dicyano-4-ethylpyridin-2-yl)thio)-2-phenylacetamide 2,2,2-trifluoroacetate] | < 0.316 |  | 1 to 31.6 | ≥ 1 µM and 3.16 µM
29 | CCc1c(C#N)c(SC(C(N)=O)c2ccccc2)nc(N(C)CCN2[C@H](C)CC[C@H]2C)c1C#N (stereo partly drawn) [Example 485, 2-((3,5-dicyano-6-((2-((2R,5R)-2,5-dimethylpyrrolidin-1-yl)ethyl)(methyl)amino)-4-ethylpyridin-2-yl)thio)-2-phenylacetamide] | < 0.316 | D (Category D: ≥6.5) |  | 
